Reference: patent US8557800B2, “Sphingosine kinase inhibitors” (Apogee Biotechnology Corporation, priority 2005, dated 2013)

How the values were obtained:
[1] = tested on: recombinant human SK; experiment: Inhibition of recombinant human SK, LC/MS/MS assay; type: biochemical; details: 6 μg/ml compound
Protocol: SK activity is measured by incubation of the recombinant SK with [^3H]sphingosine and 1 mM ATP under defined conditions, followed by extraction of the assay mixture with chloroform:methanol under basic conditions. […] Radioactivity in aliquots of the aqueous phase is then quantified as a measure of [^3H]S1P formation.
In an alternate assay procedure, the recombinant human SK was incubated with unlabeled sphingosine and ATP as described above. After 30 minutes, the reactions were terminated by the addition of acetonitrile to directly extract the newly synthesized S1P. The amount of S1P in the samples is then quantified as follows. C17 base D-erythro-sphingosine and C17 SIP are used as internal standards for sphingosine and S1P, respectively. […] The lipids are then fractionation by High-Performance Liquid Chromatography using a C8-reverse phase column eluted with 1 mM methanolic ammonium formate/2 mM aqueous ammonium formate. […] Calibration curves are generated by plotting the peak area ratios of the synthetic standards for each sphingolipid, and used to determine the normalized amounts of sphingosine and S1P in the samples.
Each Compound of this invention was tested for its ability to inhibit recombinant SK using the LC/MS/MS assay described above.

[2] = tested on: MCF-7 human breast adenocarcinoma cells; experiment: Cytotoxicity, SRB binding assay; type: cell-based; details: MCF7, inhibition of cell proliferation, 48 h, read-out: MCF-7 IC50
Protocol: To further assess the biological efficacies of the Compounds in intact cells, each Compound was evaluated for cytotoxicity using human cancer cell lines. These experiments followed methods that have been extensively used. Cell lines tested included MCF-7 human breast adenocarcinoma cells and MCF-10A non-transformed human breast epithelial cells. The indicated cell lines were treated with varying doses of the test Compound for 48 h. Cell survival was then determined using the SRB binding assay (Skehan et al., 1990, J Natl Cancer Inst 82: 1107), and the concentration of compound that inhibited proliferation by 50% (the IC50) was calculated. Values (in μM) represent the mean±sd for replicate trials.

| Compound | Recombinant SK (% inhibition) [1] [%] | IC50 [2] [µM] |
| --- | --- | --- |
| O=C(NCc1ccc(F)c(C(F)(F)F)c1)C12CC3CC(C1)CC(c1ccc(Cl)cc1)(C3)C2 [Compound 24, 3-(4-Chloro-phenyl)-adamantane-1-carboxylic acid 4-fluoro-3-trifluoromethyl-benzylamide] | 20 | 17 |
| CCSCCNC(=O)C12CC3CC(C1)CC(c1ccc(Cl)cc1)(C3)C2 [Compound 3, 3-(4-Chloro-phenyl)-adamantane-1-carboxylic acid (2-ethylsulfanyl-ethyl)-amide] | 6 | 18 |
| COc1ccc(CCNC(=O)C23CC4CC(C2)CC(c2ccc(Cl)cc2)(C4)C3)cc1Br [Compound 42, 3-(4-Chloro-phenyl)-adamantane-1-carboxylic acid [2-(3-bromo-4-methoxy-phenyl)-ethyl]-amide] | 5 | > 100 |
| O=C(NCc1ccc(C(F)(F)F)cc1)C12CC3CC(C1)CC(c1ccc(Cl)cc1)(C3)C2 [Compound 16, 3-(4-Chloro-phenyl)-adamantane-1-carboxylic acid 4-trifluoromethyl-benzylamide] | 8 | 17 |
| O=C(NCc1ccc(O)c(O)c1)C12CC3CC(CC(C3)C1)C2 [Compound 35, Adamantane-1-carboxylic acid 3,4-dihydroxy-benzylamide] | 87 | 19 |
| O=C(NCCc1ccc(O)c(O)c1)C12CC3CC(CC(C3)C1)C2 [Compound 43, Adamantane-1-carboxylic acid [2-(3,4-dihydroxy-phenyl)-ethyl]-amide] | 0 | 27 |
| O=C(NCc1ccc(OC(F)(F)F)cc1)C12CC3CC(C1)CC(c1ccc(Cl)cc1)(C3)C2 [Compound 32, 3-(4-Chloro-phenyl)-adamantane-1-carboxylic acid 4-trifluoromethoxy-benzylamide] | 17 | 24 |
| O=C(NCc1ccc(Cl)c(C(F)(F)F)c1)C12CC3CC(C1)CC(c1ccc(Cl)cc1)(C3)C2 [Compound 26, 3-(4-Chloro-phenyl)-adamantane-1-carboxylic acid 4-chloro-3-trifluoromethyl-benzylamide] | 36 | 19 |
| O=C(NCc1cccc(OC(F)(F)F)c1)C12CC3CC(C1)CC(c1ccc(Cl)cc1)(C3)C2 [Compound 33, 3-(4-Chloro-phenyl)-adamantane-1-carboxylic acid 3-trifluoromethoxy-benzylamide] | 10 | 30 |
| N#Cc1ccc(/C=C/C(=O)C23CC4CC(C2)CC(c2ccc(Cl)cc2)(C4)C3)cc1 [Compound 131, 4-{3-[3-(4-Chloro-phenyl)-adamantan-1-yl]-3-oxo-propenyl}-benzonitrile] | 41 | 27 |
| Clc1ccc(C23CC4CC(CC(CNCc5ccncc5)(C4)C2)C3)cc1 [Compound 88, [3-(4-Chloro-phenyl)-adamantan-1-ylmethyl]-pyridin-4-ylmethyl-amine] | 1 | 11 |
| CC(C)(C)NCCCNC(=O)C12CC3CC(C1)CC(c1ccc(Cl)cc1)(C3)C2 [Compound 53, 3-(4-Chloro-phenyl)-adamantane-1-carboxylic acid (3-tert-butylamino-propyl)-amide] | 52 | 11 |
| NCc1c(Cl)c(Cl)c(Cl)c(CNC(=O)C23CC4CC(C2)CC(c2ccc(Cl)cc2)(C4)C3)c1Cl [Compound 27, 3-(4-Chloro-phenyl)-adamantane-1-carboxylic acid 3-aminomethyl-2,4,5,6-tetrachloro-benzylamide] | 50 | 8 |
| O=C(NCc1ccncc1)C12CC3CC(CC(C3)C1)C2 [Compound 60, Adamantane-1-carboxylic acid (pyridin-4-ylmethyl)-amide] | 0 | 7 |
